pIC50: −log10 of the molar value.

In this experiment the target is T1, p-AXL (Homo sapiens, UniProt P30530).
T1 construct: expressed in transfected cells; host or cells: HEK293T
T1 sequence (P30530 26-894): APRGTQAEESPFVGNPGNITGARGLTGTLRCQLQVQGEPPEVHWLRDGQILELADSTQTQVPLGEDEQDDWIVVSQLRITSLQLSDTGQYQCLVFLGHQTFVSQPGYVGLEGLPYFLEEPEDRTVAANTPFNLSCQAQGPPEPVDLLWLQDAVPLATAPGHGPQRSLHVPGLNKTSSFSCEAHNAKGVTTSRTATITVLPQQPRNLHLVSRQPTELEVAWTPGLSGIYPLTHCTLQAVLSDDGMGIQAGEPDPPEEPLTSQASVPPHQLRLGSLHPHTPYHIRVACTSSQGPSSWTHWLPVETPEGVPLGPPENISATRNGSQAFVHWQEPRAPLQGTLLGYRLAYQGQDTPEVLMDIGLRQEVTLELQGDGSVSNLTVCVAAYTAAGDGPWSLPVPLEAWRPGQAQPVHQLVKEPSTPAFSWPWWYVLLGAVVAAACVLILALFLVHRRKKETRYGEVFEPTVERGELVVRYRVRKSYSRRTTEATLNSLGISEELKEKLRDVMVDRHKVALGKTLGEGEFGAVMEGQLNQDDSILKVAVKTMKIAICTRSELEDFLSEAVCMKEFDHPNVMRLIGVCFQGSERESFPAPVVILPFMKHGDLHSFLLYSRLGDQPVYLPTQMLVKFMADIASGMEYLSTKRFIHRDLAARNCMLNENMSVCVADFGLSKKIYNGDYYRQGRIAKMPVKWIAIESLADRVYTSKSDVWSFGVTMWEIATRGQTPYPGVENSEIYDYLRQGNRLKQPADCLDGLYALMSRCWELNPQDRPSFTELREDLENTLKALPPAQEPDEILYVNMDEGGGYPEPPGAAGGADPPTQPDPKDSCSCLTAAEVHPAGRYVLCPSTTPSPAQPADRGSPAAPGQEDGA
Nature of the experiment: Axl phosphorylation inhibition ELISA in HEK293T cells transfected with NanoLuc-tagged AXL. The experiment is classed as cell-based. To be noted: 1 h compound incubation, media (OptiMEM). A digest of the protocol:
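HEK293T cells transiently transfected one day earlier with NanoLuc-tagged AXL were exposed to 22-point 2-fold compound dilutions for 1 h at 37° C (70,000 cells/well), then lysed. Lysates captured on anti-phospho-tyrosine coated plates for 2 h; bound p-AXL read by NanoLuc luminescence; IC50 from 4-parameter logistic fit.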
A general note: An ELISA detects its analyte on a solid surface through an enzyme-linked reagent.
In the case of `Cc1ccccc1-c1ccc(-c2n[nH]c3ncc(-c4ccc5c(c4)CC[C@@H](N4C6COCC4C6)CC5)cc23)nc1` [Example 98, 6-[(7S)-2-{3-[5-(2-Methylphenyl)pyridin-2-yl]-1H-pyrazolo[3,4-b]pyridin-5-yl}-6,7,8,9-tetrahydro-5H-benzo[7]annulen-7-yl]-3-oxa-6-azabicyclo[3.1.1]heptane], the pIC50 was 6.00 to 7.00.

For `O=C1OCCN1c1cccnc1-c1ccc(-c2n[nH]c3ncc(-c4ccc5c(c4)CC[C@@H](N4C6COCC4C6)CC5)cc23)cc1` [Example 121, 3-[2-(4-{5-[(7S)-7-{3-Oxa-6-azabicyclo[3.1.1]heptan-6-yl}-6,7,8,9-tetrahydro-5H-benzo[7]annulen-2-yl]-1H-pyrazolo[3,4-b]pyridin-3-yl}phenyl)pyridin-3-yl]-1,3-oxazolidin-2-one], the pIC50 is over 7.00.

`CC(C)(O)c1ccccc1-c1ccc(-c2c[nH]c3ncc(-c4ccc5c(c4)CC[C@@H](N4C6COCC4C6)CC5)cc23)cn1` [Example 114, 2-[2-(5-{5-[(7S)-7-{3-Oxa-6-azabicyclo[3.1.1]heptan-6-yl}-6,7,8,9-tetrahydro-5H-benzo[7]annulen-2-yl]-1H-pyrrolo[2,3-b]pyridin-3-yl}pyridin-2-yl)phenyl]propan-2-ol] gave a pIC50 of over 7.00.

Compound `COCCOc1cccnc1-c1ccc(-c2n[nH]c3ncc(-c4ccc5c(c4)CC[C@@H](N4C6COCC4C6)CC5)cc23)cc1` [Example 180, 6-[(7S)-2-(3-{4-[3-(2-Methoxyethoxy)pyridin-2-yl]phenyl}-1H-pyrazolo[3,4-b]pyridin-5-yl)-6,7,8,9-tetrahydro-5H-benzo[7]annulen-7-yl]-3-oxa-6-azabicyclo[3.1.1]heptane] had a pIC50 of over 7.00.

Turning to `O=C1CCCCN1c1cccnc1-c1ccc(-c2n[nH]c3ncc(-c4ccc5c(c4)CC[C@@H](N4C6COCC4C6)CC5)cc23)cc1` [Example 127, 1-[2-(4-{5-[(7S)-7-{3-Oxa-6-azabicyclo[3.1.1]heptan-6-yl}-6,7,8,9-tetrahydro-5H-benzo[7]annulen-2-yl]-1H-pyrazolo[3,4-b]pyridin-3-yl}phenyl)pyridin-3-yl]piperidin-2-one], the pIC50 is over 7.00.

`Cc1ccnc(-c2ccc(-c3n[nH]c4ncc(-c5ccc6c(c5)CC[C@@H](N5C7COCC5C7)CC6)cc34)cc2)c1` [Example 117, 6-[(7S)-2-{3-[4-(4-Methylpyridin-2-yl)phenyl]-1H-pyrazolo[3,4-b]pyridin-5-yl}-6,7,8,9-tetrahydro-5H-benzo[7]annulen-7-yl]-3-oxa-6-azabicyclo[3.1.1]heptane] showed a pIC50 of 6.00 to 7.00.

For `CCOc1cccnc1-c1ccc(-c2n[nH]c3ncc(-c4ccc5c(c4)CC[C@@H](N4C6COCC4C6)CC5)cc23)cc1` [Example 181, 6-[(7S)-2-{3-[4-(3-Ethoxypyridin-2-yl)phenyl]-1H-pyrazolo[3,4-b]pyridin-5-yl}-6,7,8,9-tetrahydro-5H-benzo[7]annulen-7-yl]-3-oxa-6-azabicyclo[3.1.1]heptane], the pIC50 is 6.00 to 7.00.

`c1cnc(-c2ccc(-c3c[nH]c4ncc(-c5ccc6c(c5)CC[C@@H](N5C7COCC5C7)CC6)cc34)cc2)c(N2CCOCC2)c1` [Example 5, 6-[(7S)-2-(3-{4-[3-(Morpholin-4-yl)pyridin-2-yl]phenyl}-1H-pyrrolo[2,3-b]pyridin-5-yl)-6,7,8,9-tetrahydro-5H-benzo[7]annulen-7-yl]-3-oxa-6-azabicyclo[3.1.1]heptane] had a pIC50 of over 7.00.

In turn, `Cc1cccnc1-c1ccc(-c2n[nH]c3ncc(-c4ccc5c(c4)CC[C@@H](N4C6COCC4C6)CC5)cc23)nc1` [Example 26, 3-Methyl-6′-{5-[(7S)-7-{3-oxa-6-azabicyclo[3.1.1]heptan-6-yl}-6,7,8,9-tetrahydro-5H-benzo[7]annulen-2-yl]-1H-pyrazolo[3,4-b]pyridin-3-yl}-2,3′-bipyridine] gave a pIC50 of over 7.00.

`Cc1cccnc1-c1ccc(-c2n[nH]c3ncc(-c4ccc5c(c4)CC[C@@H](N4C[C@@H]6C[C@H]4CO6)CC5)cc23)cc1` [Example 130, (1S,4S)-5-[(7S)-2-{3-[4-(3-Methylpyridin-2-yl)phenyl]-1H-pyrazolo[3,4-b]pyridin-5-yl}-6,7,8,9-tetrahydro-5H-benzo[7]annulen-7-yl]-2-oxa-5-azabicyclo[2.2.1]heptane] showed a pIC50 of over 7.00.

In turn, `Cc1cnc(-c2ccc(-c3n[nH]c4ncc(-c5ccc6c(c5)CC[C@@H](N5C7COCC5C7)CC6)cc34)cc2)c(C)c1` [Example 119, 6-[(7S)-2-{3-[4-(3,5-Dimethylpyridin-2-yl)phenyl]-1H-pyrazolo[3,4-b]pyridin-5-yl}-6,7,8,9-tetrahydro-5H-benzo[7]annulen-7-yl]-3-oxa-6-azabicyclo[3.1.1]heptane] had a pIC50 of over 7.00.

For `C[C@@H]1COC(=O)N1c1cccnc1-c1ccc(-c2n[nH]c3ncc(-c4ccc5c(c4)CC[C@@H](N4C6COCC4C6)CC5)cc23)cc1` [Example 124, (4R)-4-Methyl-3-[2-(4-{5-[(7S)-7-{3-oxa-6-azabicyclo[3.1.1]heptan-6-yl}-6,7,8,9-tetrahydro-5H-benzo[7]annulen-2-yl]-1H-pyrazolo[3,4-b]pyridin-3-yl}phenyl)pyridin-3-yl]-1,3-oxazolidin-2-one], the pIC50 is over 7.00.

For the compound `Cc1cccnc1-c1ccc(-c2c[nH]c3ncc(-c4ccc5c(c4)CC[C@@H](N4C6COCC4C6)CC5)cc23)nc1` [Example 96, 3-Methyl-6′-{5-[(7S)-7-{3-oxa-6-azabicyclo[3.1.1]heptan-6-yl}-6,7,8,9-tetrahydro-5H-benzo[7]annulen-2-yl]-1H-pyrrolo[2,3-b]pyridin-3-yl}-2,3′-bipyridine], the pIC50 was over 7.00.

Regarding `c1cnc(-c2ccc(-c3n[nH]c4ncc(-c5ccc6c(c5)CC[C@@H](N5C7COCC5C7)CC6)cc34)cc2)c(O[C@@H]2CCOC2)c1` [Example 104, 6-[(7S)-2-[3-(4-{3-[(3R)—Oxolan-3-yloxy]pyridin-2-yl}phenyl)-1H-pyrazolo[3,4-b]pyridin-5-yl]-6,7,8,9-tetrahydro-5H-benzo[7]annulen-7-yl]-3-oxa-6-azabicyclo[3.1.1]heptane], the pIC50 was over 7.00.

`Cc1cccnc1-c1ccc(-c2n[nH]c3ncc(-c4ccc5c(c4)CC[C@@H](N[C@H]4CCCOC4)CC5)cc23)cc1` [Example 129, (3S)—N-[(7S)-2-{3-[4-(3-Methylpyridin-2-yl)phenyl]-1H-pyrazolo[3,4-b]pyridin-5-yl}-6,7,8,9-tetrahydro-5H-benzo[7]annulen-7-yl]oxan-3-amine] gave a pIC50 of over 7.00.

The compound `CN(C)S(=O)(=O)c1cccnc1-c1ccc(-c2c[nH]c3ncc(-c4ccc5c(c4)CC[C@@H](N4C6COCC4C6)CC5)cc23)cc1` [Example 6, N,N-Dimethyl-2-(4-{5-[(7S)-7-{3-oxa-6-azabicyclo[3.1.1]heptan-6-yl}-6,7,8,9-tetrahydro-5H-benzo[7]annulen-2-yl]-1H-pyrrolo[2,3-b]pyridin-3-yl}phenyl)pyridine-3-sulfonamide] had a pIC50 of over 7.00.

For the compound `Cc1cc(F)cnc1-c1ccc(-c2n[nH]c3ncc(-c4ccc5c(c4)CC[C@@H](N4C6COCC4C6)CC5)cc23)cc1` [Example 28, 6-[(7S)-3-[3-[4-(5-Fluoro-3-methylpyridin-2-yl)phenyl]-1H-pyrazolo[3,4-b]pyridin-5-yl]-6,7,8,9-tetrahydro-5H-benzo[7]annulen-7-yl]-3-oxa-6-azabicyclo[3.1.1]heptane], the pIC50 was 6.00 to 7.00.

As to `CCc1cccnc1-c1ccc(-c2c[nH]c3ncc(-c4ccc5c(c4)CC[C@@H](N4C6COCC4C6)CC5)cc23)cc1` [Example 183, 6-[(7S)-2-{3-[4-(3-Ethylpyridin-2-yl)phenyl]-1H-pyrrolo[2,3-b]pyridin-5-yl}-6,7,8,9-tetrahydro-5H-benzo[7]annulen-7-yl]-3-oxa-6-azabicyclo[3.1.1]heptane], the pIC50 was over 7.00.

As for `c1cnc(-c2ccc(-c3c[nH]c4ncc(-c5ccc6c(c5)CC[C@@H](N5C7COCC5C7)CC6)cc34)cc2)c(C2CC2)c1` [Example 178, 6-[(7S)-2-{3-[4-(3-Cyclopropylpyridin-2-yl)phenyl]-1H-pyrrolo[2,3-b]pyridin-5-yl}-6,7,8,9-tetrahydro-5H-benzo[7]annulen-7-yl]-3-oxa-6-azabicyclo[3.1.1]heptane], the pIC50 was over 7.00.

With `Cc1cc(-c2ncccc2C)ccc1-c1n[nH]c2ncc(-c3ccc4c(c3)CC[C@@H](N3C5COCC3C5)CC4)cc12` [Example 30, 6-[(7S)-3-[3-[2-Methyl-4-(3-methylpyridin-2-yl)phenyl]-1H-pyrazolo[3,4-b]pyridin-5-yl]-6,7,8,9-tetrahydro-5H-benzo[7]annulen-7-yl]-3-oxa-6-azabicyclo[3.1.1]heptane], the pIC50 was 6.00 to 7.00.

In general, pIC50 refers to −log10 of the IC50, conventionally taken in molar units. Low values mean a large IC50, high ones a small IC50.

The values are drawn from patent publication US12195482B1 (Arcus Biosciences, Inc., priority 2022, dated 2025).
